From US20220226337A1 (Gilead Sciences, Inc., priority 2018, published 2022)

Each compound was assayed against T1, α4β7 integrin interaction with MadCAM-1 (RPMI8866 cells) (Homo sapiens, UniProt P13612+P26010) (assay: α4β7 Integrin Cell Capture Assay). Settings: capture of α4β7 integrin expressing RPMI8866 cells on recombinant MadCAM-1 extracellular domain-coated plate; 0.5 mM MnCl2.
T1 construct: α4β7 integrin expressing cells; endogenous in cells; host or cells: RPMI8866 cells
T1 sequence (P13612 34-1032): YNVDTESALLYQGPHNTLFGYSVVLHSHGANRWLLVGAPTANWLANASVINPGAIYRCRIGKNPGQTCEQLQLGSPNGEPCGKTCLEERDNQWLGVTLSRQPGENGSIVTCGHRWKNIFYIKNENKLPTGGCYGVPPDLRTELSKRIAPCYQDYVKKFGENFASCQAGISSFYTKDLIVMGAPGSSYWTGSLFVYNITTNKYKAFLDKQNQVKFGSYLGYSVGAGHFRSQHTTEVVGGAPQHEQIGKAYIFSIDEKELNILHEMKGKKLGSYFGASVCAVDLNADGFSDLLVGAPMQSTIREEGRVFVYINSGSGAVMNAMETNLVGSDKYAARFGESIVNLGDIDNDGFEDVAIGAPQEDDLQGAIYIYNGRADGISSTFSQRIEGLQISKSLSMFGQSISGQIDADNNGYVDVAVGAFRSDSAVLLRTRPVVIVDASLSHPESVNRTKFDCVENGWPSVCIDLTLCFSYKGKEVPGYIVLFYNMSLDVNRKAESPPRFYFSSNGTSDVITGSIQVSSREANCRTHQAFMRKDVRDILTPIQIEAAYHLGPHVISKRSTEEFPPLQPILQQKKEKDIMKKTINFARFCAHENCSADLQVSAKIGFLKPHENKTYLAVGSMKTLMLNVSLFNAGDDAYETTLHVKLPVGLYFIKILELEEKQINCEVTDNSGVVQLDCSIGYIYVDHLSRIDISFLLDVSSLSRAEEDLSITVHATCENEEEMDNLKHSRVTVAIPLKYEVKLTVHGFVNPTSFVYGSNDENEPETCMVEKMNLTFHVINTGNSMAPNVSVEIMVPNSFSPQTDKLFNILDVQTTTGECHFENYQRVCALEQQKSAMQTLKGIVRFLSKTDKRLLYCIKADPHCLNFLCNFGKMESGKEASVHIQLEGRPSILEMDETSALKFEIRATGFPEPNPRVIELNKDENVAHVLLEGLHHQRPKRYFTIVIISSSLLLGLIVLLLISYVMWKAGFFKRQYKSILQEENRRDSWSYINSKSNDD
T1 sequence (P26010 20-798): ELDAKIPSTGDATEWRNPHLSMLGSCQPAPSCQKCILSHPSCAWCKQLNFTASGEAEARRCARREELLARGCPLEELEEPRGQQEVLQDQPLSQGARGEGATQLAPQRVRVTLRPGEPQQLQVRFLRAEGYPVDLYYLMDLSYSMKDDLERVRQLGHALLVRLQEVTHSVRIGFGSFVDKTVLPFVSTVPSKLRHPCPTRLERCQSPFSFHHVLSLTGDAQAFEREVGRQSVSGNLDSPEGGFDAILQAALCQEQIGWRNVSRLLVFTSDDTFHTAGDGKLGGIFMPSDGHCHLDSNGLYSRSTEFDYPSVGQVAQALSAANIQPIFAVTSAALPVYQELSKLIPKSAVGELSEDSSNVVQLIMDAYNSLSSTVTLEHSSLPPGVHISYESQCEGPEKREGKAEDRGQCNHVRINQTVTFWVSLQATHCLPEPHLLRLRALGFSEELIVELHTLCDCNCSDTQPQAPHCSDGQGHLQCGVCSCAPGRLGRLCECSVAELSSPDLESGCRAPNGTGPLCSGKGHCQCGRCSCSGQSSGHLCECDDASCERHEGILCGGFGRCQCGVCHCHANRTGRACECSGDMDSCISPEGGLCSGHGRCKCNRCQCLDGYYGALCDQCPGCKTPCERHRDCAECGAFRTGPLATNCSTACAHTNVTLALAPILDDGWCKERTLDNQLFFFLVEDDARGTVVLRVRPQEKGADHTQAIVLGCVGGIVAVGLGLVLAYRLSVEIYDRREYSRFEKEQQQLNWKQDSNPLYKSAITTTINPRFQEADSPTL
Type: cell-based
Procedure, shortened: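 RPMI8866 cells (0.5×10^6 cells/mL in DMEM + 0.5% FBS + 0.5 mM MnCl2) preincubated with compound 1 h at 37 °C, then allowed to adhere 30 min at 37 °C to plates coated with MAdCAM-1 extracellular domain (1.0 μg/mL). Bound cells fixed with 2% glutaraldehyde, Hoechst-stained, imaged and counted; EC50 from cell count versus concentration.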

Compound | EC50
Cc1ncc(-c2ccc(C[C@H](NC(=O)c3c(F)cc(N4CCOC[C@@H]4C(F)(F)F)cc3F)C(=O)O)c3c2OCCO3)c(=O)n1C [Example 177] | 0.593 nM
Cn1cc(-c2ccc(C[C@H](NC(=O)c3c(F)cccc3F)C(=O)O)c3c2OCCC3)c(=O)n(C)c1=O [Example 73, (S)-2-(2,6-difluorobenzamido)-3-(8-(1,3-dimethyl-2,4-dioxo-1,2,3,4-tetrahydropyrimidin-5-yl)chroman-5-yl)propanoic acid] | 17.3 nM
CC[C@@H](Nc1cc(F)c(C(=O)N[C@@H](Cc2ccc(-c3c(C(F)(F)F)cc(C)n(C)c3=O)c3c2CCCO3)C(=O)O)c(F)c1)C(F)(F)F [Example 43, (S)-2-(2,6-difluoro-4-(((R)-1,1,1-trifluorobutan-2-yl)amino)benzamido)-3-(8-(1,6-dimethyl-2-oxo-4-(trifluoromethyl)-1,2-dihydropyridin-3-yl)chroman-5-yl)propanoic acid] | 0.633 nM
Cc1nc(-c2ccc(C[C@H](NC(=O)c3c(F)cc(N4CCOC[C@@H]4C(F)(F)F)c(F)c3F)C(=O)O)c3c2OCCC3)c(=O)n(C)c1C [Example 121] | 0.758 nM
Cc1cc(N2CCOC[C@@H]2C(F)(F)F)cc(F)c1C(=O)N[C@@H](Cc1ccc(-c2c(C)nc(C)n(C)c2=O)c2c1COC2)C(=O)O [Example 183] | 0.106 nM
Cc1cc(N2CCOC[C@@H]2C(F)(F)F)cc(F)c1C(=O)N[C@@H](Cc1ccc(-c2c(C)nc(C)n(C)c2=O)c2c1CCCO2)C(=O)O [Example 129] | 0.189 nM
C[C@@H](Nc1cc(F)c(C(=O)N[C@@H](Cc2ccc(-c3c(Cl)cc(F)cc3Cl)c3c2CCCO3)C(=O)O)c(F)c1)C(F)(F)F [Example 50, (S)-3-(8-(2,6-dichloro-4-fluorophenyl)chroman-5-yl)-2-(2,6-difluoro-4-(((R)-1,1,1-trifluoropropan-2-yl)amino)benzamido)propanoic acid] | 43.4 nM
CCc1nc(-c2ccc(C[C@H](NC(=O)c3c(F)cc(N4CCOC[C@@H]4C(F)(F)F)cc3F)C(=O)O)c3c2OCCC3)c(=O)n(C)c1CC [Example 164] | 0.482 nM
Cc1c(-c2ccc(C[C@H](NC(=O)c3c(F)cccc3F)C(=O)O)c3c2CCOC3)c(=O)n(C)c2ccc(F)cc12 (single isomer, unassigned) [Example 37] | 1.6 nM
Cc1nc(-c2ccc(C[C@H](NC(=O)c3c(F)cc(N4CCOC[C@@H]4C(F)(F)F)cc3F)C(=O)O)c3c2CN(C)C3)c(=O)n(C)c1C [Example 205] | 1.27 nM
Cc1cc(N2CCC2)c(-c2ccc(C[C@H](NC(=O)c3c(F)cc(N4CCOC[C@@H]4C(F)(F)F)cc3F)C(=O)O)c3c2OCCC3)c(=O)n1C (atropisomer, axis not shown) [Example 152] | 0.791 nM
Cc1nc(C)n(C)c(=O)c1-c1ccc(C[C@H](NC(=O)c2c(F)cc(N3CCOC[C@@H]3C(F)(F)F)cc2F)C(=O)O)c2c1OCCC2 [Example 130] | 0.341 nM
O=C(N[C@@H](Cc1ccc(-c2ncccc2C(F)(F)F)c2c1CCCO2)C(=O)O)c1c(F)cc(N[C@H](c2ccccc2)C(F)(F)F)cc1F [Example 86, (S)-2-(2,6-difluoro-4-(((R)-2,2,2-trifluoro-1-phenylethyl)amino)benzamido)-3-(8-(3-(trifluoromethyl)pyridin-2-yl)chroman-5-yl)propanoic acid] | 3.34 nM
O=C(N[C@@H](Cc1ccc(-c2cc(F)c(F)cc2OC2CC2)c2c1CCCO2)C(=O)O)c1c(F)cccc1F [Example 68, (S)-3-(8-(2-cyclopropoxy-4,5-difluorophenyl)chroman-5-yl)-2-(2,6-difluorobenzamido)propanoic acid] | 56.5 nM
COc1cc(C)n(C)c(=O)c1-c1ccc(C[C@H](NC(=O)c2c(F)cc(N[C@H](C)C(F)(F)F)cc2F)C(=O)O)c2c1OCCC2 [Example 48, (S)-2-(2,6-difluoro-4-(((R)-1,1,1-trifluoropropan-2-yl)amino)benzamido)-3-(8-(4-methoxy-1,6-dimethyl-2-oxo-1,2-dihydropyridin-3-yl)chroman-5-yl)propanoic acid] | 1.23 nM
(S)-2-(2,6-difluoro-4-(((R)-1,1,1-trifluorobutan-2-yl)amino)benzamido)-3-(7-(1,4-dimethyl-2-oxo-5-(trifluoromethyl)-1,2-dihydropyridin-3-yl)-1,3-dihydroisobenzofuran-4-yl)propanoic acid [Example 25] | 2.85 nM
Cc1cccc(F)c1C(=O)N[C@@H](Cc1ccc(-c2c(Cl)cc(F)cc2Cl)c2c1OCCO2)C(=O)O [Example 7, (S)-3-(8-(2,6-dichloro-4-fluorophenyl)-2,3-dihydrobenzo[b][1,4]dioxin-5-yl)-2-(2-fluoro-6-methylbenzamido)propanoic acid] | 37.8 nM
Cc1nc(C)n(C)c(=O)c1-c1ccc(C[C@H](NC(=O)c2c(F)cc(N3CCOC[C@@H]3C(F)(F)F)cc2F)C(=O)O)c2c1OCCC2 (atropisomer, axis not shown) [Example 118] | 0.142 nM
Cc1c(-c2ccc(C[C@H](NC(=O)c3c(F)cc(N4CCOC[C@@H]4C(F)(F)F)cc3F)C(=O)O)c3c2OCCO3)c(=O)n(C)c(=O)n1C (single isomer, unassigned) [Example 8] | 0.301 nM
Cc1cc(N2CCOC[C@@H]2C(F)(F)F)cc(F)c1C(=O)N[C@@H](Cc1ccc(-c2c(C)cc(C)n(C)c2=O)c2c1CCCO2)C(=O)O [Example 160] | 0.189 nM
Cc1cc(C)n(C)c(=O)c1-c1ccc(C[C@H](NC(=O)c2c(F)cc(N3CCOC[C@@H]3C(F)(F)F)cc2F)C(=O)O)c2c1CCC2 [Example 195] | 0.198 nM
Cn1c(=O)c(-c2ccc(C[C@H](NC(=O)c3c(F)cc(N4CCOC[C@@H]4C(F)(F)F)cc3F)C(=O)O)c3c2COC3)cc2ccccc21 [Example 26, (S)-2-(2,6-difluoro-4-((R)-3-(trifluoromethyl)morpholino)benzamido)-3-(7-(1-methyl-2-oxo-1,2-dihydroquinolin-3-yl)-1,3-dihydroisobenzofuran-4-yl)propanoic acid] | 1.04 nM
Cc1nc(-c2ccc(C[C@H](NC(=O)c3c(F)cc(N4CCOC[C@@H]4C(F)(F)F)cc3F)C(=O)O)c3c2C[C@H](O)C3)c(=O)n(C)c1C [Example 191] | 0.371 nM
Cc1c(-c2ccc(C[C@H](NC(=O)c3c(F)cccc3F)C(=O)O)c3c2OCCC3)c(=O)n(C)c2ccccc12 (single isomer, unassigned) [Example 59] | 1.5 nM
Cn1nc(C(F)(F)F)cc(-c2ccc(C[C@H](NC(=O)c3c(F)cc(N4CCOC[C@@H]4C(F)(F)F)cc3F)C(=O)O)c3c2OCCC3)c1=O [Example 133] | 1.42 nM
Cc1nc(-c2ccc(C[C@H](NC(=O)c3c(F)cc(N4CC[C@@H]4C(F)(F)F)cc3F)C(=O)O)c3c2OCCC3)c(=O)n(C)c1C [Example 131] | 1.56 nM
Cc1nc(-c2ccc(C[C@H](NC(=O)c3c(F)cccc3F)C(=O)O)c3c2OCCO3)c(C(F)(F)F)c2ccccc12 [Example 2, (S)-2-(2,6-difluorobenzamido)-3-(8-(1-methyl-4-(trifluoromethyl)isoquinolin-3-yl)-2,3-dihydrobenzo[b][1,4]dioxin-5-yl)propanoic acid] | 3.76 nM
